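Compound exposure: 48 hours, 5 concentrations, 96-well plates. GI50 marks 50% less growth.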 Calls of active or inactive are those of the source. Rule as the data show it: active = GI50 up to about 1.1 µM and inactive = higher.

Consider 13 molecules from ChEMBL document CHEMBL1201862, “PubChem BioAssay data set” (2004).

Holding throughout (assay): DTP human tumour cell line panel, 48 h
Experiment [1] concerns 786-0.
Experiment [2] concerns ACHN.
Experiment [3] concerns HOP-62.
In experiment [4] the test system is K562.
For experiment [5], the system named is LOX IMVI.
Experiment [6] deals with LXFL 529.
Experiment [7] deals with M19-MEL.
Experiment [8] deals with NCI-H23.
In experiment [9] the test system is NCI-H522.
The subject of experiment [10] is OVCAR-4.
Experiment [11] concerns RPMI-8226.
Experiment [12] deals with SNB-78.
The test system of experiment [13] is SR.
Experiment [14] has as its system SW-620.
Experiment [15] concerns U-251.
Experiment [16] has as its system UACC-62.

Take `CCOC(=O)NC1CC2CCC1(OC)C=C2C` (stereo unspecified): the GI50 in experiment [1], in experiment [2], in experiment [3], in experiment [4], in experiment [5] and in experiment [6] was > 100 µM (inactive) each time. Moreover, the GI50 in [7], in experiment [8], in experiment [9], in [10], in experiment [11] and in [12] was > 100 µM (inactive) throughout. Moreover, the GI50 (as a rule, the concentration giving 50% growth inhibition) in experiment [13] was > 100 µM (inactive); in [14] it was > 90.6 µM (inactive); in experiment [15], > 100 µM (inactive); in experiment [16], > 100 µM (inactive).

As for `C=C1C(=O)C23C(O)CC4C5(C)CCCC4(C(O)OC5)C2C(OC(C)=O)CC1C3O` (stereo unspecified), the GI50 was 6.31 µM (inactive) in experiment [1]; 12.2 µM (inactive) in experiment [2]; 17.5 µM (inactive) in [3]; 2.58 µM (inactive) in [4]; 13.5 µM (inactive) in experiment [5]; 2.61 µM (inactive) in [6]. For the same molecule, the GI50 in [7] is 13.8 µM (inactive); in experiment [8] it was 5.41 µM (inactive); in experiment [9], 1.58 µM (inactive); in experiment [10], 14.3 µM (inactive); in experiment [11] it was 3.64 µM (inactive); in [12], 6.03 µM (inactive). Further, the GI50 in experiment [13] was 3.01 µM (inactive); in experiment [14], 2.91 µM (inactive); in experiment [15], 16.6 µM (inactive); in [16], 6.73 µM (inactive).

On to `Cc1noc(/N=C2\C=C(Nc3onc(C)c3C)C(=O)c3ccccc32)c1C`, for which the GI50 in experiment [1] was > 100 µM (inactive); in experiment [2] it was > 100 µM (inactive); in experiment [3], > 100 µM (inactive); in experiment [4] it was 8.81 µM (inactive); in experiment [5], 11 µM (inactive); in experiment [6] it was 25.5 µM (inactive). Further, the GI50 in experiment [7] was 3.98 µM (inactive); in experiment [8], 27.5 µM (inactive); in experiment [10], > 100 µM (inactive); in [11], 25.1 µM (inactive); in experiment [12] it was > 100 µM (inactive); in [13] it was 24.3 µM (inactive). Besides, the GI50 in experiment [14] was > 100 µM (inactive); in experiment [15], 46.1 µM (inactive); in [16], 27.7 µM (inactive).

As to `COc1ccc(N2C(=O)[C@@H]3[C@@H]4CC(C)CC[C@@H]4c4c([nH]c5ccccc45)[C@@H]3C2=O)cc1` (stereo partly specified), the GI50 in experiment [1] is 7.45 µM (inactive); in [2] it was 7.36 µM (inactive); in experiment [3], 12.6 µM (inactive); in [4] it was 30.7 µM (inactive); in experiment [5], 10.5 µM (inactive); in [6], 20.3 µM (inactive). For the same molecule, the GI50 in [7] was > 70.1 µM (inactive); in experiment [8], 15.5 µM (inactive); in experiment [9], 19.4 µM (inactive); in experiment [10], 18 µM (inactive); in experiment [11], > 10 µM (inactive); in experiment [12] it was 3.76 µM (inactive). In addition, the GI50 is 12.6 µM (inactive) in experiment [13], 13.1 µM (inactive) in experiment [14], 11.4 µM (inactive) in experiment [15] and 15.9 µM (inactive) in experiment [16].

For `CCC1C(=O)OCc2c1cc1n(c2=O)C(CC)c2c-1nc1ccccc1c2Cl` (stereo unspecified), the GI50 in experiment [1] is 15.7 µM (inactive); in [2] it was 27.4 µM (inactive); in [3], 20.7 µM (inactive); in [4] it was 27.9 µM (inactive); in [5], 33.1 µM (inactive); in experiment [6], 25.9 µM (inactive). In addition, the GI50 in experiment [7] is 32.4 µM (inactive); in experiment [8] it was 25.6 µM (inactive); in experiment [9], 15 µM (inactive); in [10], 22.4 µM (inactive); in [11], 13.2 µM (inactive); in experiment [12], 25.6 µM (inactive). In addition, the GI50 in experiment [14] is 24 µM (inactive); in experiment [15] it was 19.3 µM (inactive); in [16] it was 18.2 µM (inactive).

For the molecule `COc1ccc(OC(C(=O)O)C(C)C)c2c1CCCC2=O` (stereo unspecified), the GI50 in [1], in experiment [2], in [3], in experiment [4], in experiment [5] and in experiment [6] was > 100 µM (inactive) throughout. Besides, the GI50 in experiment [7], in experiment [8], in experiment [9], in experiment [10], in [11] and in experiment [12] was > 100 µM (inactive) in each case. For the same molecule, the GI50 in experiment [14], in [15] and in experiment [16] was > 100 µM (inactive) in each case.

Regarding `COc1cc([C@@H]2c3cc4c(cc3[C@@H](NC(=O)c3ccc(C(C)=O)cc3)C3COC(=O)[C@@H]32)OCO4)cc(OC)c1O` (stereo partly specified), the GI50 in [1] was 0.327 µM (active); in experiment [2], 0.189 µM (active); in experiment [3], 0.151 µM (active); in experiment [4] it was 1.48 µM (inactive); in experiment [5] it was 0.289 µM (active); in experiment [6] it was 5.56 µM (inactive). Also, the GI50 in experiment [7] is 3.01 µM (inactive); in experiment [8], 0.264 µM (active); in [9], 1.1 µM (active); in [10] it was 27.3 µM (inactive); in [11], 0.877 µM (active); in experiment [12], 8.99 µM (inactive). The results for the GI50 in experiment [14], in experiment [15] and in [16] were 0.24 µM (active), 0.0743 µM (active) and 0.206 µM (active), respectively.

Take `CC(=O)OC12c3ccccc3C1CCCC21OCCCO1` (stereo unspecified): the GI50 in experiment [1], in experiment [2], in [3], in experiment [4], in experiment [5] and in experiment [6] was > 100 µM (inactive) in each case. For the same molecule, the GI50 in experiment [7], in experiment [8], in experiment [9], in experiment [10], in experiment [11] and in experiment [12] was > 100 µM (inactive) each time. Moreover, the GI50 in [14], in experiment [15] and in [16] was > 100 µM (inactive) in each case.

For `CN(/N=C/c1cccc2cccnc12)c1ccccc1`, the GI50 in [1] is 55.3 µM (inactive); in experiment [2], 99.5 µM (inactive); in [3] it was 76.2 µM (inactive); in [4], > 100 µM (inactive); in experiment [5], > 100 µM (inactive); in experiment [6], 89.3 µM (inactive). Further, the GI50 is > 100 µM (inactive) in experiment [7]; 59.8 µM (inactive) in experiment [8]; > 100 µM (inactive) in experiment [9]; 87.5 µM (inactive) in [10]; > 100 µM (inactive) in [11]; > 100 µM (inactive) in experiment [12]. Besides, the GI50 in [14], in experiment [15] and in experiment [16] was > 100 µM (inactive) each time.

For the molecule `CN1Cc2c(nc(-c3ccccc3)c[n+]2[O-])N(C)C1`, the GI50 in [1], in experiment [2], in experiment [3], in [4], in [5] and in experiment [6] was > 100 µM (inactive) in each case. For the same molecule, the GI50 in [7], in experiment [8], in [9], in experiment [10], in [11] and in experiment [12] was > 100 µM (inactive) each time. The GI50 in [14], in experiment [15] and in experiment [16] was > 100 µM (inactive) throughout.

Turning to `CC(C)=CCCC(C)[C@H]1CC(O)C2(C)C3=CCC4C(C)(C)[C@@H](O)CC[C@]4(C)C3=CC[C@]12C` (stereo partly specified), the GI50 in [1] is 1.55 µM (inactive); in experiment [3], 5.83 µM (inactive); in [4], 1.59 µM (inactive); in experiment [5], 0.0902 µM (active); in experiment [6] it was 1.95 µM (inactive); in experiment [7], 4.51 µM (inactive). Moreover, the GI50 in experiment [8] is 3.72 µM (inactive); in [9], 0.401 µM (active); in experiment [10] it was 2.31 µM (inactive); in experiment [11], 3.27 µM (inactive); in experiment [12], 7.13 µM (inactive); in experiment [13], 11.6 µM (inactive). Besides, the GI50 in experiment [14] was 3.89 µM (inactive); in experiment [15], 2.28 µM (inactive); in experiment [16], 4.23 µM (inactive).

`O=C(Nc1c(Cl)cc([N+](=O)[O-])cc1Cl)C(=O)C(C1OC(=O)c2ccccc21)[N+](=O)[O-]` (stereo unspecified): the GI50 in [1] is > 100 µM (inactive); in experiment [2], > 100 µM (inactive); in [3], 81.8 µM (inactive); in [4], > 100 µM (inactive); in [5], 81.7 µM (inactive); in [6] it was > 100 µM (inactive). Besides, the GI50 in experiment [7] is > 100 µM (inactive); in [8] it was > 100 µM (inactive); in [10], > 100 µM (inactive); in [11], 89.9 µM (inactive); in [12], 41.2 µM (inactive); in experiment [13], > 100 µM (inactive). The GI50 in experiment [14], in experiment [15] and in experiment [16] was > 100 µM (inactive) each time.

Regarding `C[N+](C)(C)C.FC(F)(F)C1(C(F)(F)F)O[SiH-]2(OC(C(F)(F)F)(C(F)(F)F)c3ccccc32)c2ccccc21`, the GI50 is 16.7 µM (inactive) in experiment [1]; 22.8 µM (inactive) in [2]; 5.87 µM (inactive) in [4]; 12.6 µM (inactive) in experiment [6]; 18.2 µM (inactive) in experiment [7]; 11 µM (inactive) in [8]. Also, the GI50 in experiment [9] is 22.1 µM (inactive); in experiment [10], 6.47 µM (inactive); in experiment [11] it was 16.4 µM (inactive); in experiment [12], 13.2 µM (inactive); in experiment [13], 14.5 µM (inactive); in [14] it was 18 µM (inactive). In experiment [15], the GI50 was 5.4 µM (inactive).
